# Columns and labels:
# [1] = tested on: M. tuberculosis rifampicin resistant strain RpoBS522L (H37Rv); assay type: cell-based, Mycobacterium tuberculosis
# [2] = tested on: M. tuberculosis rifampicin-resistant strain RpoBS531L; assay type: cell-based, Mycobacterium tuberculosis
Compound,"Mycobacterium tuberculosis strain MIC90, RpoBS522L H37Rv [1]","Mycobacterium tuberculosis strain MIC90, RpoBS531L [2]"
CO[C@H]1/C=C/O[C@@]2(C)Oc3c(C)c(O)c4c(O)c(c(CNCCCn5cc(CCn6cc(F)c(=O)[nH]c6=O)nn5)c(O)c4c3C2=O)NC(=O)/C(C)=C\C=C\[C@H](C)[C@H](C)[C@@H](C)[C@@H](O)[C@@H](C)[C@H](OC(C)=O)[C@@H]1C [Compound 3A],0.31 µM,0.22 µM
CO[C@H]1/C=C/O[C@@]2(C)Oc3c(C)c(O)c4c(O)c(c(CNCCOCCOCCOCn5cc(CCn6cc(F)c(=O)[nH]c6=O)nn5)c(O)c4c3C2=O)NC(=O)/C(C)=C\C=C\[C@H](C)[C@H](C)[C@@H](C)[C@@H](O)[C@@H](C)[C@H](OC(C)=O)[C@@H]1C [Compound 3B],0.32 µM,0.23 µM
CO[C@H]1/C=C/O[C@@]2(C)Oc3c(C)c(O)c4c(O)c(c(CNCCOCCOCCOCn5cc(CCCn6cc(F)c(=O)[nH]c6=O)nn5)c(O)c4c3C2=O)NC(=O)/C(C)=C\C=C\[C@H](C)[C@H](C)[C@@H](C)[C@@H](O)[C@@H](C)[C@H](OC(C)=O)[C@@H]1C [Compound 3C],0.47 µM,0.21 µM
"NNC(=O)c1ccncc1 [Isoniazid, reference compound]",0.29 µM,0.55 µM

# — patent US20250241914A1, “BIFUNCTIONAL PHARMACEUTICAL COMPOUNDS” (DE MONTFORT UNIVERSITY, priority 2024, published 2025)
